Results from patent EP4570800A1, “CRYSTAL FORM OF PYRIDINOPYRIMIDINONE COMPOUND, ACID SALT THEREOF, CRYSTAL FORM OF ACID SALT THEREOF, AND USE” (Wuhan Humanwell Innovative Drug Research and Development …, priority 2022, dated 2024).
Like-named read-outs stand apart in the source and are kept apart here.

Experiments:
CYP3A4 = target: T1, CYP3A4 (Homo sapiens, UniProt P08684); experiment: Cytochrome P450 inhibition test (CYP3A4, substrates midazolam and testosterone); assay type: in vitro ADME; conditions: compound 10 µM, human liver microsomes
T1 construct: A human liver microsome solution at a concentration of 0.2 mg/mL was prepared; from tissue; host or cells: human liver microsomes
T1 sequence (P08684 whole entry): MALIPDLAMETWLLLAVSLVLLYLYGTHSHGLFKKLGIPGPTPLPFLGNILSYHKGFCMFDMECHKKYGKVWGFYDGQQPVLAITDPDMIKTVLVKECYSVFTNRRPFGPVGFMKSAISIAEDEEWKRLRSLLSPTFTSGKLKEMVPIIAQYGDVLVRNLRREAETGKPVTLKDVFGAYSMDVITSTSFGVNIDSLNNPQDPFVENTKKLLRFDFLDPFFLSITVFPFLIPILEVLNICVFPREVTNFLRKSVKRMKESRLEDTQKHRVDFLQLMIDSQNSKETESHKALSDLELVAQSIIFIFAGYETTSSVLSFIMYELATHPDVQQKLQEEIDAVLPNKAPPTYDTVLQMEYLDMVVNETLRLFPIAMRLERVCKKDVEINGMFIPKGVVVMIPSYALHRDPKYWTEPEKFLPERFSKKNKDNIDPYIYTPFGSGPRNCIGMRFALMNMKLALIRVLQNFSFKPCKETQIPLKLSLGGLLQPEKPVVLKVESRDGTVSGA
Experimental: The inhibitory potential of compounds on cytochrome P450 (CYP450) subtype CYP3A4 (two substrates of midazolam and testosterone) was detected. First, the compound to be tested was prepared into a 10 mM stock solution in DMSO solvent, and the CYP3A4 inhibitor ketoconazole was prepared as 10 mM, 2.5 mM, and 2.5 mM stock solutions in DMSO solvent. The test compound and ketoconazole were diluted to 400-fold final concentration (compound: 10 µM, ketoconazole: 2.5 µM) with acetonitrile.
NADPH cofactor (10 mL of potassium phosphate buffer added with 66.7 mg NADPH) at 4-fold final concentration and substrates were prepared with potassium phosphate buffer (0.1 M, pH = 7.4), with CYP3A4 substrate midazolam at a final concentration of 320 µM and CYP3A4 substrate testosterone at a final concentration of 20 µM.
A human liver microsome solution at a concentration of 0.2 mg/mL was prepared with potassium phosphate buffer on ice. A solution of the compound to be tested and a control inhibitor (control compound) solution at 2-fold final concentration were prepared with the human liver microsome solution on ice. The test wells were added with 30 mL of the test compound solution and the control inhibitor solution respectively, and then added with 15 mL of the substrate for duplication. […]

[1] = Plasma protein binding rate by equilibrium dialysis; assay type: in vitro ADME; conditions: compound 1 µM, equilibrium dialysis 37°C
Experimental: Plasma protein binding rate of compounds was detected by equilibrium dialysis (HTDialysis, HTD 96b). The compound was prepared into a […] stock solution with DMSO, and then 25-fold diluted with 0.05 M sodium phosphate buffer as a working solution. A blank 96-well plate was taken and preloaded with 380 µL of plasma per well. The plasma was then added with the working solution at 20 µL/well and mixed well, with the compound at a final concentration of 1 µM, containing 0.2% DMSO per well.
100 µL of 0.05 M sodium phosphate buffer was added to the receiver-side of each dialysis chamber (HTD 96b), and then 100 µL of plasma containing the compound was added to the supply-side. The dialysis chamber was covered with a plastic lid, shaken, and incubated at 37°C for 5 h.
After incubation, 25 µL of sample was taken from each of the supply-side and the receiver-side of the dialysis chamber, and placed in the blank 96-well plate. An equal volume of plasma was added to each of the supply-side samples while an equal volume of 0.05 M sodium phosphate buffer was added to each of the receiver-side samples, and mixed well. […]
Plasma protein binding rate and free fraction were calculated using the following formulas: % binding rate = 100 × ([supply-side concentration]5h - [receiver-side concentration]5h)/[supply-side concentration]5h. % free fraction = 100 - % binding rate

[2] = Mouse pharmacokinetic test (oral gavage); assay type: in vivo; conditions: plasma, male ICR mice, oral administration by gavage, 10 mg/kg
Experimental: Male ICR mice (20 to 25 g) were used, and fasted overnight. Three mice were taken and orally administered by gavage (10 mg/kg). Blood was collected before the administration, and at 15 min, 30 min, 1 h, 2 h, 4 h, 8 h, and 24 h after the administration. 6,800 g of the blood samples were centrifuged at 2 to 8°C for 6 min, and plasma was collected and stored at -80°C. The plasma at each time point was taken and added with an acetonitrile solution containing internal standard in 3 to 5 times the amount, vortexed and mixed for 1 min, and centrifuged at 13,000 rpm/min at 4°C for 10 min. The supernatant was collected, added with water in 3 times the amount, and mixed. An appropriate amount of the mixture was taken for LC-MS/MS analysis. The main pharmacokinetic parameters were analyzed using WinNonlin 7.0 software with non-compartmental model.

LOVO colorectal cancer = experiment: In vivo efficacy test on LOVO colorectal cancer; set-up: species or system mice; conditions: 50 mg/kg, BID
Experimental: After one week of adaptive feeding of mice, LOVO cells in a logarithmic phase were resuspended in serum-free F12K, 5 × 10^6 LOVO cells were inoculated subcutaneously at the right flank at 100 µL per mouse, and tumor growth was observed regularly. When the tumor grew to an average volume of 150 to 200 mm^3, the mice were randomly divided into a model group and an administration group based on the tumor size and body weight. The tumor size and body weight were measured and recorded before and during the administration. After the treatment, the tumor size in the model group was compared with that in the administration group to determine the efficacy.

H358 cells = experiment: Inhibition of 3D cell proliferation (3D CellTiter-Glo); assay type: cell-based
Experimental: H358 cells were seeded in a T75 culture flask, and cultured in a RPMI 1640 medium containing 10% FBS for 2 days for subsequent experiments in which the cells would be cultured or seeded on a 384-well plate.
On day 1, the cells were seeded on the 384-well plate, with 40 µL of medium added per well and serially diluted compounds or DMSO added per well, and an additional well without seeded cells but with medium was set up as a blank control. After culture at 37°C, 5% CO2 for 7 days, the plate was added with 3D CellTiter-Glo reagent (Promega, Cat. No. G9683) on day 8, shaken at 320 rpm for 20 min, and left at room temperature for 2 h. Luminescence signals were read on a multifunctional microplate reader. Cell viability inhibition rate was calculated as: [formula]
IC50 values were calculated using Graphpad 5 software.

[3] = Human liver microsome stability test; assay type: in vitro ADME; conditions: human liver microsomes
Experimental: The human liver microsome stability test was performed by incubating the compound and human liver microsomes in vitro. First, the compound to be tested was prepared into a 10 mM stock solution in DMSO solvent, and then the compound was diluted to 0.5 mM with acetonitrile. Human liver microsomes (Corning) were diluted with PBS into a microsome/buffer solution, and the solution was used to dilute 0.5 mM compound into a working solution, in which the concentration of the compound was 1.5 µM, and the concentration of human liver microsomes was 0.75 mg/mL. A deep-well plate was taken, 30 µL of the working solution was added per well, and then 15 µL of pre-heated 6 mM NADPH solution was added thereto to initiate a reaction, and the reaction was incubated at 37°C. At 0, 5, 15, 30, and 45 min of the incubation, 135 µL of acetonitrile was added to the corresponding wells to terminate the reaction. After the reaction was terminated with acetonitrile at the last time point of 45 min, the deep-well plate was vortexed for 10 min (600 rpm/min), and then centrifuged for 15 min. After centrifugation, the supernatant was collected, and added with purified water in a ratio of 1:1 to perform LC-MS/MS detection. A ratio of a peak area of compound to a peak area of internal standard at each time point was obtained, and the peak area ratios of the compound at 5, 15, 30, and 45 min were compared with the peak area ratio at 0 min to calculate the remaining percentage of the compound at each time point. T1/2 was calculated by using GraphPad 5 software.

SMILES: Cc1nc(N[C@H](C)c2cccc(S(F)(F)(F)(F)F)c2)c2cn(C3(CF)CC3)c(=O)cc2n1 [Compound of formula I, (R)-6-(1-(fluoromethyl)cyclopropyl)-2-methyl-4-((1-(3-(pentafluorosulfanyl)phenyl)ethyl)amino)pyrido[4,3-d]pyrimidin-7(6H)-one]
- inhibition at 5 min, 10 µM (CYP3A4; pH 7.4, probe midazolam, substrate midazolam, read-out: CYP inhibition rate (%) CYP3A4 (midazolam)): 0%
- inhibition at 5 min, 10 µM (CYP3A4; pH 7.4, probe testosterone, substrate testosterone, read-out: CYP inhibition rate (%) CYP3A4 (testosterone)): 0%
- fraction unbound at 5 h, 1 µM ([1]; human plasma, read-out: free fraction in plasma, Human (%)): 0.017
- fraction unbound at 5 h, 1 µM ([1]; mouse plasma, read-out: free fraction in plasma, Mouse (%)): 0.011
- AUC(0-t) [2]: 3080 ng·h/mL
- Cmax [2]: 1440 ng/mL
- Tmax [2]: 1 h
- half-life [2]: 0.97 h
- At the end of treatment Average tumor weight (LOVO colorectal cancer): 0.75 g
- Tumor weight inhibition rate (relative to the vehicle group) (LOVO colorectal cancer): 46%
- IC50 (H358 cells; Homo sapiens, NCI-H358, 168 h, 3D cell proliferation in H358 cells, 7 days culture, 3D CellTiter-Glo): 11.5 nM
- inhibitory effect on the 3D proliferation of H358 cells (H358 cells; summary statement): strong inhibitory effect
- half-life at 1 µM [3]: 12.8 h
- Remaining percentage (%) of compound after incubation for 30 min ([3]; incubation for 30 min, 37°C): 98.7%
